# “Also recorded” adds a separate entry of the source.
# Experiments:
# Alport mice [1] = test: transmission electron microscopy of glomerular basement membrane of treated Alport mice; format: in vivo, mouse
# Experimental: The Alport mouse model has been described (Cosgrove et al. (1996) Genes Dev. 10, 2981-2992). The control mice used were normal for both collagen α3(IV) alleles, and are a product of double heterozygote crosses for the Alport mutation. The use of animals in this study was performed in accordance with an approved institutional IACUC protocol. Extreme care was taken to minimize pain and discomfort suffered by the mice. MMP inhibitors were administered between 4 and 7 weeks of age. All drugs were freshly prepared prior to administration. BAY 129566 was emulsified in suspension with 0.5% carboxymethyl cellulose and 4 mg given once a day by oral gavage. MMI-270 was solubilized in 0.9% saline and administered by I.P. injection (50 μg/g body weight) once a day. Transmission electron microscopy was performed as previously described (Cosgrove et al., 1996, Genes Dev. 10, 2981-2992). Ultrastructural localization studies of type IV collagen were performed essentially as previously described (Bhattacharya et al., 2002). Kidneys from 7-week-old control and Alport mice were fixed by heart perfusion with 2% paraformaldehyde in PBS, and post-fixed in this same solution overnight. Ultrathin (70 nm) sections were reacted for 4 hours at room temperature with goat anti-collagen IV antibodies (Southern Biotechnology, Birmingham, Ala.). After six 10 minute washes in PBS, specimen were reacted for 2 hours at room temperature with 10 nanometers (nm) gold-conjugated anti-rabbit antibodies (Vector Laboratories, Burlingame, Calif.). Grids were washed as before, air-dried, counterstained with uranyl acetate, and examined using transmission electron microscopy. Propagermanium (3-oxygemylpropinic acid polymer, Sanwa Kagaku Kenkyusho Co., Nagoya, Japan) was administered orally (10 milligrams per kilogram (mg/kg) in 1% gelatin) by gavage once daily starting at 5 weeks of age, and kidneys harvested at 7 weeks of age. Three animals per group, Alport mice and control litter mates, gavaged with drug or vehicle only, were analyzed. […] Proteolytic degradation of the GBM in Alport syndrome might underlie the progressive irregular GBM damage and podocyte foot process effacement. Type IV collagen from Alport kidneys is more susceptible to proteolytic degradation in vitro than type IV collagen from healthy kidneys (Kalluri et al. (1997) J. Clin. Invest. 99, 2470-2478, presumably owing to the reduced number of interchain disulfide crosslinks (Gunwar et al. (1998) J. Biol. Chem. 273, 8767-8775).
# MMP-12 mRNA = test: real time PCR of glomerular RNA of propagermanium-treated Alport mice: MMP-12; format: in vivo, mouse; conditions: propagermanium 10 mg/kg oral gavage once daily from 5 to 7 weeks of age, 50-fold in vehicle-treated
# Experimental: (§1) Isolation of mouse glomeruli was performed as described by Takemoto et al., (Am. J. Pathol. (2002)161, 799-805). The procedure involves cardiac perfusion with deactivated […] Dynabeads (Dynal Biotech, Oslo, Sweden), followed by collagenase digestion and glomerular isolation using a magnet.
# (§2) Total RNA samples were treated with RNase-free DNase I (Gibco BRL, USA) at 37° C. for 1 hour (hr) in order to remove any contaminating genomic DNA before reverse transcription (RT). Total RNA was reverse-transcribed by using Superscript II (GIBCO BRL) with oligo dt primers. To ensure that the quantitation of MMP transcripts in serial samples was not affected by differences in the amount of RNA added, integrity of RNA, or sample to sample differences in levels of RT-PCR inhibition, an internal control reaction targeting the GAPDH gene was run in multiplex with each reaction, and used to normalize results for MMP transcripts. […] The data were analyzed using comparative threshold cycle (CT) method. The mRNA quantity for the control is expressed as 1× sample and all other quantities from Alport samples are expressed as fold difference relative to the controls. No measurable fluorescence signal was detected in repeated RT-PCR runs in which the reverse transcriptase was omitted from the reaction mixture. […]
# MMP-3 mRNA = test: real time PCR of glomerular RNA of propagermanium-treated Alport mice: MMP-3; format: in vivo, mouse; conditions: propagermanium 10 mg/kg oral gavage once daily from 5 to 7 weeks of age
# Experimental: as §1, §2
# MMP-9 mRNA = test: real time PCR of glomerular RNA of propagermanium-treated Alport mice: MMP-9; format: in vivo, mouse; conditions: propagermanium 10 mg/kg oral gavage once daily from 5 to 7 weeks of age
# Experimental: as §1, §2
# Alport mice [2] = test: immunofluorescence of kidney cryosections (fibronectin, collagen IV α1/α2) of treated Alport mice; format: in vivo, mouse; conditions: Alport mice treated from 4 to 7 weeks of age; MMI-270 50 μg/g I.P., BAY 129566 4 mg once daily oral gavage; fibronectin and collagen IV α1/α2 immunostaining
# Experimental: The Alport mouse model has been described (Cosgrove et al. (1996) Genes Dev. 10, 2981-2992). The control mice used were normal for both collagen α3(IV) alleles, and are a product of double heterozygote crosses for the Alport mutation. The use of animals in this study was performed in accordance with an approved institutional IACUC protocol. Extreme care was taken to minimize pain and discomfort suffered by the mice. MMP inhibitors were administered between 4 and 7 weeks of age. All drugs were freshly prepared prior to administration. BAY 129566 was emulsified in suspension with 0.5% carboxymethyl cellulose and 4 mg given once a day by oral gavage. MMI-270 was solubilized in 0.9% saline and administered by I.P. injection (50 μg/g body weight) once a day.
# Cryosections ([…]) of kidneys from 7-week-old normal and Alport mice were air dried, fixed by immersion in ice cold acetone, and subjected to immunohistochemical staining analysis using antibodies specific for MMP-3 (rabbit polyclonal anti-human MMP-3, a gift from Dr. Z. Gunza-Smith, Miami, Fla., used at 1:200 dilution), MMP-12 (rabbit polyclonal antibody against mouse MMP-12, kindly provided by Yoshikatsu Kaneko, used at 1:100 dilution), type IV collagen α1/2 chains (rabbit polyclonal against mouse type IV collagen, Biodesign, Inc., Saco, Me., used at 1:200 dilution), fibronectin (rabbit polyclonal against human plasma fibronectin, Sigma Chemical Co., St. Louis, Mo., used at 1:200). Anti-CD31 antibodies were directly conjugated to Alexa 568 (Molecular Probes, Eugene Oreg.) and purchased from Immunotech (Marseille, France). […] Images were collected using a Cytovision Ultra Image analysis system interfaced with an Olympus BH-2 fluorescence microscope.
# To assess the effect of these two compounds on Alport renal disease progression, Alport mice were administered either MMI 270 or BAY 129566 from 4 to 7 weeks of age. […] Cryosections were analyzed by immunofluorescence microscopy to assess for the degree of glomerular and tubulointerstitial damage using antibodies specific for collagen IV α1 and α2 chains, and fibronectin.
# MMP-2 = target: T1, MMP-2 (Homo sapiens, UniProt P08253); conditions: listed as BAY 129566; cited from earlier work
# T1 sequence (P08253 110-660): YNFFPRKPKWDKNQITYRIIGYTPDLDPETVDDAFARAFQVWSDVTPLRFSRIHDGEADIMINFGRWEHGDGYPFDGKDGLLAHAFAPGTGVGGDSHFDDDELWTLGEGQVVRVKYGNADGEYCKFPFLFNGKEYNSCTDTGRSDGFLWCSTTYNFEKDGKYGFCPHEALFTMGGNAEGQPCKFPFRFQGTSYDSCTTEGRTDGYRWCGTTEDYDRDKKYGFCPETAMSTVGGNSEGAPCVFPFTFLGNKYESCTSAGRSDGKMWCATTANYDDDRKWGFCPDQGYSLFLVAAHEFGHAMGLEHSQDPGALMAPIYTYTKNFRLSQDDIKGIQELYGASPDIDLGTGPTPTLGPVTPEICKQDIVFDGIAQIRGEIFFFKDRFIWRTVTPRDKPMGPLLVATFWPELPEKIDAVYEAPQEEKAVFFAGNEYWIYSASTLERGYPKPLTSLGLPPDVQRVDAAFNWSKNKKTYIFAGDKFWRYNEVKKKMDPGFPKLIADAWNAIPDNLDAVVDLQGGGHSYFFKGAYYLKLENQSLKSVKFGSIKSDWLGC
# MMP-3 = MMP-3 (Homo sapiens, UniProt P08254); conditions: listed as BAY 129566; cited from earlier work
# MMP-3, sequence (P08254 100-477, species assumed): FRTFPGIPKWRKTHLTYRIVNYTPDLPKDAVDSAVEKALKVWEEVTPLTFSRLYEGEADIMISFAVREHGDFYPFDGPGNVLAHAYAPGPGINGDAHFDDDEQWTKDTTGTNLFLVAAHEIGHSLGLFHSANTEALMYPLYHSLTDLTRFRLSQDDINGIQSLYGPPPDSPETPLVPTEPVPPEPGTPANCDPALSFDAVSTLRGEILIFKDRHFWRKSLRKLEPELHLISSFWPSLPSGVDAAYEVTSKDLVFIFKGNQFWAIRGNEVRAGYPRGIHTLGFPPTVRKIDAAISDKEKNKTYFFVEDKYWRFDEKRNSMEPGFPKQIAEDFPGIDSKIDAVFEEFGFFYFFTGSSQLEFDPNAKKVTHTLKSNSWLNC
# MMP-9 = MMP-9 (Homo sapiens, UniProt P14780); conditions: listed as BAY 129566; cited from earlier work
# MMP-9, sequence (P14780 94-707, species assumed): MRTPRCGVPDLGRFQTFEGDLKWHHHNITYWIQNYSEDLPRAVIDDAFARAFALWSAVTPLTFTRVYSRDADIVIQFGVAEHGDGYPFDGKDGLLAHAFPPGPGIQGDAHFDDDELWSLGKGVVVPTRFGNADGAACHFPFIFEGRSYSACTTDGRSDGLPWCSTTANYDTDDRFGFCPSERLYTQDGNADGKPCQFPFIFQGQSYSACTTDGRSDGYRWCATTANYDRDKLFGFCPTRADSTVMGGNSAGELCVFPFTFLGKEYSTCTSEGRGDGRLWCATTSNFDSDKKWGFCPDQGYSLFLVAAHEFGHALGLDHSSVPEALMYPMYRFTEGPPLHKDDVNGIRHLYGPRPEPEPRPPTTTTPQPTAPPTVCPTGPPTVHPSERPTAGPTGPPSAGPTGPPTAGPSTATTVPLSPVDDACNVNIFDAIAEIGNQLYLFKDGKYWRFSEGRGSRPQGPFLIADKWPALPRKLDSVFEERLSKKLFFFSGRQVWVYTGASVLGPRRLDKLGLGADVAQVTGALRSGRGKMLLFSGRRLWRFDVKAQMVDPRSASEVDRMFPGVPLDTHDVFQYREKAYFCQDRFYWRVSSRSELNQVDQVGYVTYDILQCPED
# MMP-12 = MMP-12 (Homo sapiens, UniProt P39900); conditions: listed as BAY-12-9566; cited from earlier work
# MMP-12, sequence (P39900 106-470, species assumed): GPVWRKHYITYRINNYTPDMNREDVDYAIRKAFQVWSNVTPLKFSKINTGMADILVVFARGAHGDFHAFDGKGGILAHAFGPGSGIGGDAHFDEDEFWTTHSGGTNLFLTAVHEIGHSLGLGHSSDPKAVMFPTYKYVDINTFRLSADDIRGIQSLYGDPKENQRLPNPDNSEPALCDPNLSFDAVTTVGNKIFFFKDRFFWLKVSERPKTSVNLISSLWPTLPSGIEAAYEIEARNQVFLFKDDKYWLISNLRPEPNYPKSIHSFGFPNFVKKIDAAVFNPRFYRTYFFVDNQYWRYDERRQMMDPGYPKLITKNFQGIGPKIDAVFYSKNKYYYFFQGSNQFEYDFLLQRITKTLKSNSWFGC
# MMP-14 = MMP-14 (Homo sapiens, UniProt P50281); conditions: listed as BAY 129566; cited from earlier work
# Alport mice [3] = conditions: cited from earlier work
compound,measurement,setting,value
3-oxygermylpropionic acid [propagermanium],glomerular basement membrane architecture,"Alport mice [1]; Alport mice, propagermanium 10 mg/kg oral gavage once daily from 5 to 7 weeks of age, transmission electron microscopy",restores normal GBM architecture
same,MMP-12 mRNA induction in glomeruli relative to normal controls,MMP-12 mRNA,6 fold
same,induction of MMP-3 mRNA in glomeruli,MMP-3 mRNA,unaffected
same,induction of MMP-9 mRNA in glomeruli,MMP-9 mRNA,unaffected
O=C(C[C@H](CSc1ccccc1)C(=O)O)c1ccc(-c2ccc(Cl)cc2)cc1 [BAY 12-9566],glomerular and tubulointerstitial (renal) disease progression,Alport mice [2],same degree of renal pathology as untreated Alport mice; also recorded: no obvious effect; also recorded: did not significantly affect; also recorded: no improvement
same,glomerular basement membrane architecture,"Alport mice [1]; Alport mice treated with MMP inhibitor from 4 to 7 weeks of age, electron microscopy",no effect
same,"MMP inhibitory effect, MMP-2",MMP-2,inhibits
same,"MMP inhibitory effect, MMP-3",MMP-3,inhibits
same,"MMP inhibitory effect, MMP-9",MMP-9,inhibits
same,"MMP inhibitory effect, MMP-12",MMP-12,does not
same,"MMP inhibitory effect, MMP-14",MMP-14,inhibits
CCOC(=O)[C@H](CCc1ccccc1)N[C@@H](C)C(=O)N1[C@H](C(=O)O)C[C@@H]2CCC[C@@H]21 [Ramipril],lifespan,Alport mice [3],doubles
